Results: patent US20040127567A1, “Novel methods for treating disorders in which docosahexaenoic acid (DHA) levels are affected” (Beth Israel Deaconess Medical Center, Inc., priority 1998, published 2004)
Several values for one entry are separate records, joined by “and”; a condition that tells them apart may be missing. Identical values can stand only once. Entries after “also recorded” stand apart in the source; their conditions may differ.

Tests used:
CFTR−/− mice [1] = assay: Pancreatic morphology / luminal diameter in CFTR−/− mice; format: in vivo, mouse; details: for Effect on pancreas morphology (in words): 40 mg/day for one week (fish oil: dose equivalent to 40 mg DHA, 60 mg EPA, 15 mg LNA), vs Peptamen alone
Protocol: CF and WT mice were fed as outlined in the method section above. Dilation of the pancreatic duct lumen is a hallmark feature of cystic fibrosis. Therefore, the luminal area was measured from a minimum of 30 images from CF knockout mice treated with Peptamen™ alone or Peptamen™ plus 40 mg/day of DHA as well as wild type (WT) mice treated with Peptamen™ alone beginning at the time of weaning. Animals were sacrificed at 37 days of age and each pancreas fixed in glutaraldehyde. Analysis was performed using NIH Image software. The results are outlined in FIG. 1. […] No other treatment to date has shown tissue improvements at a morphological level.
The morphology of various organs were also studied. Sample preparation were carried out as follows: 1-2 cm of ileum adjacent to the cecum was fixed in formalin, embedded in paraffin, cut in cross-section, and stained with hematoxylin/eosin. For pancreatic analyses, 2-3 mm pieces of pancreas were fixed for 1.5 h in 2% glutaraldehyde in 0.2M cacodylate buffer. Tissue samples were then washed in 0.2M cacodylate buffer and subsequently postfixed for 1 h in 1% osmium tetroxide in 0.1 M cacodylate buffer. Tissue was embedded in epon and thick sections stained with 1% toluidine blue.
Morphometry: For measurement of ileal villus height or pancreatic luminal diameter, multiple images were randomly taken at 200× using a Nikon Microphot-SA microscope equipped with a Diagnostic Instruments, Inc., Spot Digitizing System. Images were examined in a blinded fashion by two independent observers. Quantitation was performed using NIH Imaging Software. The differences between the means in the groups tested were evaluated using the Student's t-test.
Tissue samples from these mice were prepared for light microscopy and sections analyzed at 200×. Pancreatic acinar cell morphology of CFTR−/− control mice is characterized by massive luminal dilatation and zymogen granule accumulation at the apical pole of the acinar cells (data not shown), two hallmark features of cystic fibrosis pathology (W. V. L. Go. (1993) Pancreas: Biology, Pathobiology, and Disease, Chapter 54:1041-1081). […] Luminal diameter is approximately 9fold greater in CFTR−/− mice. […] There also appeared to be a decrease in ductal plugs DGA-fed CFTR−/− mice; however, this observation was not subjected to morphometric analysis.
Additional experiments were performed to observe the effect of administering the DHA precursor docosapentaenoic acid (DPA,22:5n-3) on DHA levels. Wild-type and CFTR−/− mice were fed with 40 mg of DPA per day for 7 days and fatty acids in pancreas and lung analyzed by GC/MS. One to 2 mm pieces of pancreas from both wild-type and CFTR−/−were fixed for 1.5 h in […] in 0.2M cacodylate buffer and processed for morphometric analysis.

CFTR−/− mice [2] = assay: Fatty acid levels (GC/MS) in pancreas and lung cells of CFTR−/− mice fed n-3 fatty acids; format: in vivo, mouse; details: for DHA level in pancreas: CFTR-/- mice, mean ± S.D.; for DHA level in pancreas / Change in phospholipid/membrane-bound AA (in words) / Change in phospholipid/membrane-bound DHA (in words): 40 mg/day for one week (fish oil: dose equivalent to 40 mg DHA, 60 mg EPA, 15 mg LNA); for Change in phospholipid/membrane-bound AA (in words) / Change in phospholipid/membrane-bound DHA (in words): vs Peptamen alone
Protocol: Mouse pancreatic acinar and lung cell suspensions were prepared from wild type (n=3) and CFTR−/− mice (n=3) by enzymatic and mechanical dissociation. In addition, brain, kidney, heart, spleen, and blood were sonicated in 0.3M sucrose buffer. Membrane lipids were extracted from cell and organ preparations with 20 volumes of chloroform-methanol 2:1 (v/v), transmethylated with 0.5 mL of 0.1 N methanolic-NaOH/BF3 reagent, and the resulting fatty acid methyl esters analyzed by gas chromatography/mass spectrometry (GC/MS). In a different set of experiments, lipids were fractionated by aminopropyl column chromatography into triglycerides, cholesterol esters, and phosphoglycerides and the fatty acid composition of each lipid class determined by a combination of enzymatic hydrolysis, transmethylation, and GC/MS.
Cystic fibrosis (UNC strain) and wild type mice (12-20 grams body weight) were fed with a complete liquid enteral formulation (Peptamen™, Nestle Clinical Nutrition, Inc.) supplemented with different quantities of the DHA-containing formulation Neuromins (Nature's Way Products Inc., Springville, Utah). DHA content in the Neuromins formulation was 100 mg per 500 mg of formulation. Mice were fed once a day at about 11 a.m., seven days a week with 20 ml of Peptamen™ supplemented with the various amounts of either Neuramins, free DHA (Sigma Chemical Co., MO) or DHA-ethyl ester (Nu-Check-Prep, Inc. MN) ranging from 0.5 mg/day of DHA to 40 mg/day of DHA.
Lung and acinar cells were isolated from a CF mouse fed with DHA formula (mouse-1, 40 mg/day DHA). The pellets (0.5 mL for pancreas cell homogenate and 0.6 mL for lung cell homogenate) were extracted with 3 mL of chloroform-methanol 2:1 (v/v). The resulting emulsion was vortexed, centrifuged at 800 g for 3 min., and the lower phase aspirated. The residual upper phase was partitioned again with 3 mL of chloroform-methanol 2:1 (v/v), the lower phase aspirated and both lower phases combined. Fractions were evaporated to dryness, processed for fatty acid methyl esters (FAME) and were analyzed by GC-MS analysis. Aliquots of 10 μL of 17:0 methyl ester solution in hexane [1 μg/μL] were added to the samples after methylation.
(§1) Lung and acinar cells were isolated from a CF and a wild-type (WT) mouse fed with DHA formula. The pellets (0.5 mL for pancreas cell homogenate and 0.6 mL for lung cell homogenate) were extracted with 3 mL of chloroform-methanol 2:1 (v/v). The resulting emulsion was vortexed, centrifuged at 800 g for 3 min., and the lower phase aspirated. The residual upper phase was partitioned again with 3 mL of chloroform-methanol 2:1 (v/v), the lower phase aspirated and both lower phases combined. Fractions were evaporated to dryness, processed for FAME and analyzed by GC-MS. Aliquots of 20 μL of 17:0 in chloroform-methanol 2:1 (v/v) were added to the samples before methylation.
as §1, with “from” for “from a”, “mice” for “and a wild-type (WT) mouse”, “different doses of DHA, i.e., 0.5 mg/day, 2.0 mg/day, 10 mg/day or 40 mg/day DHA.” for “DHA formula.”, “pellets” for “pellets (0.5 mL for pancreas cell homogenate and 0.6 mL for lung cell homogenate)”, “30” for “20”
CFTR−/− mice were prepared as described in Example 1. Both CFTR−/− mice and wild type mice were euthanized with carbon dioxide, and cell suspensions from pancreas and lung isolated.

[3] = CF mice, 40 mg/day DHA (dose series, Table 5)
[4] = CF mouse-1, 40 mg/day DHA, day 30 to day 37
[5] = CF mouse-2, 40 mg/day DHA, day 24 to day 47
[6] = CFTR (-/-) mice, 40 mg DPA per day for 7 days
[7] = CFTR−/− mice, listed as 18:3n-3

In the case of `CC/C=C\C/C=C\C/C=C\C/C=C\C/C=C\C/C=C\CCC(=O)O` [DHA, docosahexaenoic acid], the “Decrease in pancreatic luminal diameter” value (CFTR−/− mice [1]; oral 40 mg/day for 7 days, p<0.0001, n=6) is reported as 63%, the “20:4n-6 in pancreas” value (CFTR−/− mice [2]; CF mice, 0.5 mg/day DHA) is reported as 315 nmoles per total extract and the “22:4n-6 in pancreas” value (CFTR−/− mice [2]; CF mice, 0.5 mg/day DHA) is reported as 8.3 nmoles per total extract. For the same molecule, the “22:6n-3 in pancreas” value (CFTR−/− mice [2]; CF mice, 0.5 mg/day DHA) was 39 nmoles per total extract, the “20:4n-6 in pancreas” value (CFTR−/− mice [2]; CF mice, 2 mg/day DHA) was 233 nmoles per total extract and the “22:4n-6 in pancreas” value (CFTR−/− mice [2]; CF mice, 2 mg/day DHA) was 7.2 nmoles per total extract. For the same molecule, the “22:6n-3 in pancreas” value (CFTR−/− mice [2]; CF mice, 2 mg/day DHA) was 43 nmoles per total extract, the “20:4n-6 in pancreas” value (CFTR−/− mice [2]; CF mice, 10 mg/day DHA) was 177 nmoles per total extract and the “22:4n-6 in pancreas” value (CFTR−/− mice [2]; CF mice, 10 mg/day DHA) was 3.7 nmoles per total extract. For the same molecule, the “22:6n-3 in pancreas” value (CFTR−/− mice [2]; CF mice, 10 mg/day DHA) was 67 nmoles per total extract, the “20:4n-6 in pancreas” value (CFTR−/− mice [2]; [3]) was 67 nmoles per total extract and the “22:4n-6 in pancreas” value (CFTR−/− mice [2]; [3]) was 0.4 nmoles per total extract. The “22:6n-3 in pancreas” value (CFTR−/− mice [2]; [3]) was 148 nmoles per total extract, the “20:4n-6 in lung” value (CFTR−/− mice [2]; [4]) was 75 nmoles per total extract and the “20:4n-6 in pancreas” value (CFTR−/− mice [2]; [4]) was 144^1 nmoles per total extract. For the same molecule, the “22:4n-6 in lung” value (CFTR−/− mice [2]; [4]) was 12 nmoles per total extract, the “22:4n-6 in pancreas” value (CFTR−/− mice [2]; [4]) was 1.5 nmoles per total extract and the “22:6n-3 in lung” value (CFTR−/− mice [2]; [4]) was 167 nmoles per total extract. The “22:6n-3 in pancreas” value (CFTR−/− mice [2]; [4]) was 167 nmoles per total extract, the “20:4n-6 in lung” value (CFTR−/− mice [2]; [5]) was 60 nmoles per total extract and the “20:4n-6 in pancreas” value (CFTR−/− mice [2]; [5]) was 67^1 nmoles per total extract and 67 nmoles per total extract. The “22:4n-6 in lung” value (CFTR−/− mice [2]; [5]) was 4.1 nmoles per total extract, the “22:4n-6 in pancreas” value (CFTR−/− mice [2]; [5]) was 0.4 nmoles per total extract and the “22:6n-3 in lung” value (CFTR−/− mice [2]; [5]) was 222 nmoles per total extract. The “22:6n-3 in pancreas” value (CFTR−/− mice [2]; [5]) was 148 nmoles per total extract, the “DHA level in pancreas” value (CFTR−/− mice [2]) was 7.9 ± 1.5 nmol/mg and the “Increase of DHA levels in pancreas above wild-type levels” value (CFTR−/− mice [2]; CFTR−/− mice, 40 mg DHA/day) was 3 fold.
For `CC/C=C\C/C=C\C/C=C\C/C=C\C/C=C\CCCCCC(=O)O` [DPA, docosapentaenoic acid], the “Improvement in pancreas morphology (pancreatic ductal diameter, presence of plugs)” value (CFTR−/− mice [1]; 40 mg per day for 7 days) was 20%, the “20:4n-6 in lung” value (CFTR−/− mice [2]; [6]) was 5.8 ± 0.9 (17.5) nmoles of fatty acid per mg of protein and the “20:4n-6 in pancreas” value (CFTR−/− mice [2]; [6]) was 5.1 ± 0.6^1 (13.3) nmoles of fatty acid per mg of protein. For the same molecule, the “20:5n-3 in lung” value (CFTR−/− mice [2]; [6]) was 15.6 ± 1.1 (0.1) nmoles of fatty acid per mg of protein, the “22:6n-3 in lung” value (CFTR−/− mice [2]; [6]) was 5.5 ± 0.8(4.0) nmoles of fatty acid per mg of protein and the “DHA level in pancreas” value (CFTR−/− mice [2]) was 3.7 ± 0.4 nmol/mg.
In the case of `CC/C=C\C/C=C\C/C=C\CCCCCCCC(=O)O` [LNA, α-linolenic acid, reference compound], the “Effect on pancreas morphology (in words)” value (CFTR−/− mice [1]) is reported as “significant increase in acinar lumen dilatation and plug formation; also recorded: significant increase in ductal dilatation; also recorded: increased acinar lumen dilation and plug formation”, the “Effect on pancreas morphology (in words)” value (CFTR−/− mice [1]; listed as 18:3n-3) is reported as “worsening of the pathological changes in the pancreas” and the “DHA level in pancreas” value (CFTR−/− mice [2]) is reported as 0.7 ± 0.07 nmol/mg. For the same molecule, the “Change in phospholipid/membrane-bound AA (in words)” value (CFTR−/− mice [2]; CFTR−/− mice) was “significant decrease; also recorded: four-fold decrease”, the “Change in phospholipid/membrane-bound DHA (in words)” value (CFTR−/− mice [2]; CFTR−/− mice) was “further decrease; also recorded: two-fold decrease” and the “Change in phospholipid/membrane-bound AA (in words)” value (CFTR−/− mice [2]; [7]) was “significant decrease”. For the same molecule, the “Change in phospholipid/membrane-bound DHA (in words)” value (CFTR−/− mice [2]; [7]) was “further decrease”.
